{"source": "paper PMC5064022", "about": "“KCNE1 induces fenestration in the Kv7.1/KCNE1 channel complex that allows for highly specific pharmacological targeting” (Nature Communications, 2016)", "type_in_all_cases": "cell-based", "key": {"[1]": {"molecular_target": "Kv7.1/KCNE1 (Homo sapiens, UniProt P15382+P51787)", "test": "Two electrode voltage clamp of Kv7.1/KCNE1 currents in Xenopus oocytes", "protocol": "Template cDNAs (wildtype or mutant human Kv7.1 in pSGEM, wildtype human KCNE1 in pSP64) were linearized with a suitable restriction enzyme (Nhe I/pSGEM, Eco RI/pSP64). cRNA was synthesized from 1 μg linearized cDNA by in vitro transcription (mMessage mMachine T7 or SP6 kit, Ambion, Life Technologies Darmstadt, Germany). cRNA concentrations were determined by photometry (Nanodrop, Peqlab, Erlangen, Germany) and cRNA quality was checked by agarose gel electrophoresis.\nOocytes were commercially obtained from EcoCyte Bioscience (Castrop-Rauxel, Germany). Injection of stage 4 or 5 oocytes was performed using a nanoliter injector 2000 (WPI, Berlin, Germany). For standard pharmacological measurements, each oocyte was injected with 5 ng Kv7.1 cRNA alone or with 1 ng KCNE1 cRNA. To investigate the influence of KCNE1 on AC-1 sensitivity of Kv7.1 tetramers, 5 ng Kv7.1 cRNA was injected with different amounts of KCNE1 cRNA (0 ng, 0.005 ng, 0.05 ng, 0.5 ng and 5 ng). Injected oocytes were maintained in an incubator at 17 °C for 4–5 days in standard Barth solution (EcoCyte Bioscience, Castrop-Rauxel, Germany) supplemented with 90 μg ml^−1 theophylline, 63 μg ml^−1 penicillin, 40 μg ml^−1 streptomycin, and 100 μg ml^−1 gentamycin until used for two electrode voltage clamp (TEVC) measurements.\nTEVC measurements were performed using a TurboTec-10CD amplifier (npi Electronic, Tamm, Germany) and an ITC-16 AD/DA-interface (Instrutech Corporation, Port Washington, New York, USA). Pulse and PulseFit software (HEKA, Lambrecht/Pfalz, Germany) was used for data acquisition and analysis. During TEVC recordings, oocytes were constantly perfused with control solution (ND96, containing in mM: 96 NaCl, 4 KCl, 1.8 CaCl2, 1 MgCl2, 5 mM HEPES, pH 7.6 supplemented 0.1–0.3% DMSO). AC solutions were freshly prepared in ND96 from a 10 mM DMSO stock solution. Glass capillaries were pulled to a fine point to produce current and voltage electrodes that were back-filled with 3 M KCl. When filled with this solution, electrode resistances ranged from 0.5–1.5 MΩ. Different voltage pulse protocols were used as follows: (1) To study the inhibitory effect of different AC derivatives, Kv7.1/KCNE1 currents were elicited by repetitive 7 s pulses to +40 mV applied every 30 s from a holding potential of −80 mV. (2) To analyse the voltage dependence of channel activation, currents were elicited by 10 s pulses to test voltages between −100 and +60 mV, applied in 20 mV increments from a holding potential of −80 mV. Tail currents were recorded at −120 mV. For control we always expressed KCNE1 alone along mutant channels and mutant currents were only taken into account when it reached at least 2.5- to 3-fold the size of the background Xenopus-Kv7.1/hKCNE1 currents.\nElectrophysiological data were analysed using PulseFit software (HEKA, Lambrecht/Pfalz, Germany) and GraphPad Prism (GraphPad Software, Inc., La Jolla, California, USA). Channel inhibition was determined as reduction of whole cell current amplitude at the end of a 7 s test pulse to +40 mV. The concentration of compound that caused half-maximal inhibition (IC50) were determined using the Hill equation: Idrug/Imax=1/(1+[C/IC50]^H), where Idrug is the current amplitude in the presence of the drug, Imax is the current amplitude before drug application, C is the drug concentration and H is the Hill coefficient."}, "[2]": {"molecular_target": "I274A/KCNE1 (Homo sapiens, UniProt P15382+P51787, I274A)", "test": "TEVC, mutant channel I274A/KCNE1 in oocytes", "conditions": "Kv7.1 I274A mutant with KCNE1", "from_the_text": "(§1) Ala scanning was previously used to identify specific residues that form the putative binding sites for chromanol and benzodiazepine derivatives that are considered to be classical pore blockers of Kv7.1 channels. Here we applied Ala scanning to multiple segments of the Kv7.1 α-subunit to identify potential AC-1 interaction sites in the extended pore region of Kv7.1/KCNE1 channels (Fig. 3a). In cases where mutation to Ala precluded channel function, alternative residues were introduced. […] Instead, most of these crucial residues cluster around a ‘window' formed uniquely in the preopen–closed state model of the Kv7.1/KCNE1 channel[33] (Fig. 3c, magenta residues). […]\n(§2) Template cDNAs (wildtype or mutant human Kv7.1 in pSGEM, wildtype human KCNE1 in pSP64) were linearized with a suitable restriction enzyme (Nhe I/pSGEM, Eco RI/pSP64). cRNA was synthesized from 1 μg linearized cDNA by in vitro transcription (mMessage mMachine T7 or SP6 kit, Ambion, Life Technologies Darmstadt, Germany). cRNA concentrations were determined by photometry (Nanodrop, Peqlab, Erlangen, Germany) and cRNA quality was checked by agarose gel electrophoresis. […]\n(§3) TEVC measurements were performed using a TurboTec-10CD amplifier (npi Electronic, Tamm, Germany) and an ITC-16 AD/DA-interface (Instrutech Corporation, Port Washington, New York, USA). […] Tail currents were recorded at −120 mV. […]"}, "[3]": {"molecular_target": "T312S/KCNE1 (Homo sapiens, UniProt P15382+P51787, T312S)", "test": "TEVC, mutant channel T312S/KCNE1 in oocytes", "conditions": "Kv7.1 T312S mutant with KCNE1", "from_the_text": "as §1, §2, §3"}, "[4]": {"molecular_target": "I337V/KCNE1 (Homo sapiens, UniProt P15382+P51787, I337V)", "test": "TEVC, mutant channel I337V/KCNE1 in oocytes", "conditions": "Kv7.1 I337V mutant with KCNE1", "from_the_text": "as §1, §2, §3"}, "[5]": {"molecular_target": "A344C/KCNE1 (Homo sapiens, UniProt P15382+P51787, A344C)", "test": "TEVC, mutant channel A344C/KCNE1 in oocytes", "conditions": "Kv7.1 A344C mutant with KCNE1", "from_the_text": "as §1, §2, §3"}, "[6]": {"test_system": "T1, Kv7.2", "T1 construct": "expressed in transfected cells", "test": "TEVC, Kv7.2 channels", "conditions": "1 μM"}, "[7]": {"test_system": "T2, Kv1.5", "T2 construct": "expressed in transfected cells", "test": "TEVC, Kv1.5 channels", "conditions": "1 μM"}}}
{"smiles": "CC(C)(Oc1ccc(Cl)cc1)C(=O)NC1C2CC3CC1CC(NS(C)(=O)=O)(C3)C2", "note": "(stereo not drawn) [AC-1, 2-(4-chlorophenoxy)-2-methyl-N-[5-[(methylsulfonyl)amino]tricyclo[3.3.1.13,7]dec-2-yl]-propanamide]", "values": [{"measurement": "effect on channel activation kinetics", "setting": "[1]; 300 nM", "value": "strong deceleration of channel activation"}, {"measurement": "effect on rate of current deactivation", "setting": "[1]; 300 nM, activated by 5 s pulse to +40 mV", "value": "does not alter the rate of current deactivation"}, {"measurement": "effect on rate of current deactivation", "setting": "[1]; 300 nM, activated by 5 s pulse to −20 mV", "value": "decreases the rate of current deactivation"}, {"measurement": "inhibition at 10 µM", "setting": "[1]; 10 µM, percent change in current amplitude at end of pulse to +40 mV", "value": "89.2 ± 1.2", "unit": "%"}, {"measurement": "Hill-coeff.", "setting": "[1]; concentration-response at +40 mV, oocytes", "value": "1.2 ± 0.1"}, {"measurement": "maximum reduction of Kv7.1/KCNE1 channel currents", "setting": "[1]; even at concentrations ∼100-fold greater than the IC50", "value": "about 90%"}, {"measurement": "higher voltages required to elicit measurable channel opening (depolarizing shift of activation)", "setting": "[1]; in the presence of AC-1 (300 nM)", "value": "20–40 mV"}, {"measurement": "slope m of linear fit of τinhibition against AC-1 concentration", "setting": "[1]; onset of inhibition, single exponential, y=m × log[AC−1]+b", "value": "−1.02±0.19"}, {"measurement": "IC50", "setting": "[1]; wt, currents at end of 7 s pulse to +40 mV, holding −80 mV, oocytes, read-out: IC50 for inhibition of Kv7.1/KCNE1 channel currents", "value": 78.4, "unit": "nM"}, {"measurement": "IC50", "setting": "[2]", "value": "327 ± 83", "unit": "nM"}, {"measurement": "IC50", "setting": "[3]", "value": "> 50000", "unit": "nM"}, {"measurement": "IC50", "setting": "[4]", "value": "6000 ± 1600", "unit": "nM"}, {"measurement": "IC50", "setting": "[5]", "value": "1000 ± 200", "unit": "nM"}, {"measurement": "effect on Kv7.2", "setting": "[6]", "value": "does not affect"}, {"measurement": "effect on Kv1.5", "setting": "[7]", "value": "does not affect"}]}
